Experiment [1] concerns CDK1 phosphorylation in tsFT210 cells. As to the kind of experiment: Western blotting of CDK1 phosphorylation status in tsFT210 cells. It counts as cell-based, mouse. The note with it: 5–50 μM, permissive temperature 32 °C. For orientation: Immunoblotting shows a protein as a band on a membrane.
Experiment [2] has as its system ROS level in tsFT210 cells. As to the kind of experiment: Measurement of ROS in tsFT210 cells with H2DCFDA. The note with it: 50 μM, 30 min at 32 °C.
In another experiment the test system is tsFT210 cells. As to the kind of experiment: Cell cycle analysis of G2-synchronized tsFT210 cells. In kind it is cell-based, mouse. The note with it: 5–50 μM, 4 h at 32 °C, compared with the vehicle control.

`CCCCCCCCCCCCCCC/C(NCc1ccccc1)=C1/C(=O)OC(CO)C1=O` (stereo not drawn) [Compound 7]: the “inhibition of the dephosphorylation of CDK1” value in experiment [1] is on record as “concentration dependently inhibited the dephosphorylation of CDK1”. Also, the “change of H2DCFDA fluorescence intensity (ROS)” value in experiment [2] is “did not induce a significant change”. Also, the “effect on G2/M arrest of tsFT210 cells after release” value with tsFT210 cells is “predominantly maintained the G2/M arrest of tsFT210 cells in a concentration-dependent manner”.
For `CCCCCCCCCCCCCCCC(NCc1cccc(C)c1)=C1C(=O)OC(CO)C1=O` (stereo not drawn) [Compound 8a], the “inhibition of the dephosphorylation of CDK1” value in experiment [1] is recorded as “did not inhibit the dephosphorylation of CDK1 even at 50 μM”. In experiment [2], the “change of H2DCFDA fluorescence intensity (ROS)” value is given as “did not induce a significant change”. Besides, in the experiment on tsFT210 cells, the “effect on G2/M arrest of tsFT210 cells after release” value is “had little effect on tsFT210 cells”.
On the same counts, the results for `CCCCCCCCCCCCCCCC(NCc1ccccc1O)=C1C(=O)OC(CO)C1=O` (stereo not drawn) [Compound 10d] are “concentration dependently inhibited the dephosphorylation of CDK1”, “did not induce a significant change” and “predominantly maintained the G2/M arrest of tsFT210 cells in a concentration-dependent manner”.

Values taken from paper PMC3324983 (ACS Medicinal Chemistry Letters, 2012).
